How the values were obtained:
chickweed = experiment: Test C postemergence test; type: in vivo, Stellaria media; settings: for Plant response rating, Chickweed: scale 0 to 100, 0 no effect, 100 complete control
Procedure: (§1) At the same time, plants selected from these crop and weed species and also winter barley (Hordeum vulgare), canarygrass (Phalaris minor), and chickweed (Stellaria media) were treated with postemergence applications of some of the test chemicals formulated in the same manner. Plants ranged in height from 2 to 18 cm (1- to 4-leaf stage) for postemergence treatments. […] At time of treatment, test pots were flooded to 3 cm above the soil surface, treated by application of test compounds directly to the paddy water, and then maintained at that water depth for the duration of the test. Treated plants and controls were maintained in a greenhouse for 13 to 15 days, after which time all species were compared to controls and visually evaluated. […] A dash (-) response means no test result.

canarygrass = experiment: Test C postemergence test; type: in vivo, Phalaris minor; settings: for Plant response rating, Canarygrass: scale 0 to 100, 0 no effect, 100 complete control
Procedure: as §1

windgrass = experiment: Test C pre-/postemergence test; type: in vivo, Apera spica-venti; settings: Postemergence; for Plant response rating, Windgrass: scale 0 to 100, 0 no effect, 100 complete control
From the text: Seeds of plant species selected from blackgrass (Alopecurus myosuroides), downy brome (Bromus tectorum), green foxtail (Setaria viridis), Italian ryegrass (Lolium multiflorum), wheat (Triticum aestivum), wild oat (Avena fatua), catchweed bedstraw (Galium aparine), Russian thistle (Salsola kali), […] (Cynodon dactylon), Surinam grass (Brachiaria decumbens), cocklebur (Xanthium strumarium), corn (Zea mays), crabgrass (Digitaria sanguinalis), woolly cupgrass (Eriochloa villosa), giant foxtail (Setaria faberii), Goosegrass (Eleusin indica), johnsongrass (Sorghum halepense), kochia (Kochia scoparia), lambsquarters (Chenopodium album), morningglory (Ipomoea coccinea), eastern black nightshade (Solanum ptycanthum), yellow nutsedge (Cyperus esculentus), pigweed (Amaranthus retroflexus), common ragweed (Ambrosia elation), soybean (Glycine max), common (oilseed) sunflower (Helianthus annuus), and velvetleaf (Abutilon theophrasti) were planted and treated preemergence with test chemicals formulated in a non-phytotoxic solvent mixture which included a surfactant. At the same time, plants selected from these crop and weed species and also winter barley (Hordeum vulgare), canarygrass (Phalaris minor), and chickweed (Stellaria media) were treated with postemergence applications of some of the test chemicals formulated in the same manner. Plants ranged in height from 2 to 18 cm (1- to 4-leaf stage) for postemergence treatments. […] At time of treatment, test pots were flooded to 3 cm above the soil surface, treated by application of test compounds directly to the paddy water, and then maintained at that water depth for the duration of the test. […] A dash (-) response means no test result.

winter barley = experiment: Test C postemergence test; type: in vivo, Hordeum vulgare; settings: for Plant response rating, Barley: scale 0 to 100, 0 no effect, 100 complete control
Procedure: as §1

spanishneedles = experiment: Test F preemergence test; type: in vivo, Bidens bipinnata; settings: scale 0 to 100; for Plant response rating, Spanishneedles: 31 g ai/ha
From the text: (§2) Seeds of plant species selected from bermudagrass (Cynodon dactylon), Surinam grass (Brachiaria decumbens), large crabgrass (Digitaria sanguinalis), green foxtail (Setaria viridis), goosegrass (Eleusine indica), johnsongrass (Sorghum halepense), kochia (Kochia scoparia), pitted morningglory (Ipomoea lacunosa), purple nutsedge (Cyperus rotundus), common ragweed (Ambrosia elation), mustard (Brassica nigra), guineagrass (Panicum maximum), […] (Paspalum dilatatum), barnyardgrass (Echinochloa crus-galli), southern sandbur (Cenchrus echinatus), common sowthistle (Sonchus oleraceous), prickly […] spinosa), Italian ryegrass (Lolium multiflorum), common purslane (Portulaca oleracea), broadleaf signalgrass (Brachiaria platyphylla), common groundsel (Senecio vulgaris), common chickweed (Stellaria media), Virginia dayflower (Commelina virginica), annual bluegrass (Poa annua), naked crabgrass (Digitaria nuda), […] cochinchinensis), quackgrass (Elytrigia repens), Canada horseweed (Conyza canadensis), field bindweed (Convolvulus arvensis), […] (Bidens bipinnata), common mallow (Malva sylvestris), Russian thistle (Salsola kali), and sugarcane (Saccharum officinarum) were planted and treated preemergence with test chemicals formulated in a non-phytotoxic solvent mixture which included a surfactant. At a different time, sugarcane was treated with postemergence applications of some of the test chemicals formulated in the same manner. Plants were approximately 3- to 4-leaf stage for the postemergence treatments. Treated plants and controls were maintained in a greenhouse for 14 to 21 days, after which time all species were compared to controls and visually evaluated. […] A dash (-) response means no test result.

common sowthistle = experiment: Test F preemergence test; type: in vivo, Sonchus oleraceous; settings: scale 0 to 100
From the text: as §2

Canada horseweed = experiment: Test F preemergence test; type: in vivo, Conyza canadensis; settings: scale 0 to 100
From the text: as §2

common chickweed = experiment: Test F preemergence test; type: in vivo, Stellaria media; settings: scale 0 to 100
From the text: as §2

Structure (SMILES) | Plant response rating (0 to 100), Chickweed (chickweed; 31 g ai/ha) | Plant response rating, Chickweed (chickweed; 62 g ai/ha) | Plant response rating, Chickweed (chickweed; 125 g ai/ha) | Plant response rating, Chickweed (chickweed; 250 g ai/ha) | Plant response rating (0 to 100), Canarygrass (canarygrass; 31 g ai/ha) | Plant response rating, Canarygrass (canarygrass; 62 g ai/ha) | Plant response rating, Canarygrass (canarygrass; 125 g ai/ha) | Plant response rating, Canarygrass (canarygrass; 250 g ai/ha) | Plant response rating (0 to 100), Windgrass (windgrass; 31 g ai/ha) | Plant response rating (0 to 100), Windgrass (windgrass; 62 g ai/ha) | Plant response rating, Windgrass (windgrass; 125 g ai/ha) | Plant response rating, Windgrass (windgrass; 250 g ai/ha) | Plant response rating (0 to 100), Barley (winter barley; 31 g ai/ha) | Plant response rating, Barley (winter barley; 62 g ai/ha) | Plant response rating, Barley (winter barley; 125 g ai/ha) | Plant response rating, Barley (winter barley; 250 g ai/ha) | other results
[O-][n+]1cc(Cl)ccc1[S+]([O-])Cc1c(C(F)(F)F)nn(CC(F)(F)F)c1Cl (stereo not drawn) [Compound 47] | 0 | 0 | 0 | 0 | 0 | 0 | 0 | 40 | 0 | 0 | 95 | 98 | 0 | 0 | 10 | 45 | 
Cn1nc(C(F)(F)F)c(CS(=O)(=O)c2cccc[n+]2[O-])c1OCC(F)(F)F [Compound 29] |  |  |  |  |  |  |  |  |  |  |  |  |  |  |  |  | Spanishneedles plant response rating (spanishneedles; 62 g ai/ha, Preemergence): 0; Spanishneedles plant response rating (spanishneedles; 125 g ai/ha, preemergence): 25; Plant response rating, Spanishneedles (spanishneedles; Preemergence): 0
CCn1nc(C(F)(F)F)c(C(C)S(=O)(=O)c2cccc[n+]2[O-])c1OCC(F)(F)F (stereo not drawn) [Compound 69] | 0 | 0 | 0 | 40 | 0 | 0 | 0 | 10 | 40 | 95 | 95 | 100 | 0 | 0 | 20 | 25 | 
CC(Oc1c(C[S+]([O-])c2cccc[n+]2[O-])c(C(F)(F)F)nn1C)C(F)(F)F (stereo not drawn) [Compound 77] |  |  |  |  |  |  |  |  |  |  |  |  |  |  |  |  | Plant response rating, Sowthistle (common sowthistle; 16 g ai/ha, preemergence): 0; Sowthistle plant response rating (common sowthistle; 125 g ai/ha, preemergence): 50; Plant response rating, Sowthistle (common sowthistle; Preemergence, 31 g ai/ha): 0; Plant response rating, Horseweed (Canada horseweed; 16 g ai/ha, preemergence): 0; Horseweed plant response rating (Canada horseweed; 62 g ai/ha, Preemergence): 98; Horseweed plant response rating (Canada horseweed; 125 g ai/ha, preemergence): 100; Plant response rating, Horseweed (Canada horseweed; Preemergence, 31 g ai/ha): 50
CC(Oc1c(CS(=O)(=O)c2cccc[n+]2[O-])c(C(F)(F)F)nn1C)C(F)(F)F (stereo not drawn) [Compound 82] | 0 |  | 0 | 0 | 0 |  | 0 | 0 | 70 | 90 | 100 | 100 | 0 |  | 0 | 0 | Plant response rating (0 to 100), Chickweed (chickweed; 62 g ai/ha): 0; Plant response rating (0 to 100), Canarygrass (canarygrass; 62 g ai/ha): 0; Plant response rating (0 to 100), Barley (winter barley; 62 g ai/ha): 0
CCn1nc(C(F)(F)F)c(CS(=O)(=O)c2cccc[n+]2[O-])c1OCC(F)(F)F [Compound 63] |  |  |  |  |  |  |  |  |  |  |  |  |  |  |  |  | Plant response rating, Horseweed (Canada horseweed; 16 g ai/ha, preemergence): 0; Horseweed plant response rating (Canada horseweed; 62 g ai/ha, Preemergence): 98; Horseweed plant response rating (Canada horseweed; 125 g ai/ha, preemergence): 100; Plant response rating, Horseweed (Canada horseweed; Preemergence, 31 g ai/ha): 98
Cn1nc(C(F)(F)C(F)(F)F)c(C[S+]([O-])c2cccc[n+]2[O-])c1OCC(F)(F)F (stereo not drawn) [Compound 79] | 70 |  | 100 | 100 | 0 |  | 0 | 0 | 60 | 100 | 100 | 100 | 0 |  | 0 | 0 | Plant response rating (0 to 100), Chickweed (chickweed; 62 g ai/ha): 100; Plant response rating (0 to 100), Canarygrass (canarygrass; 62 g ai/ha): 0; Plant response rating (0 to 100), Barley (winter barley; 62 g ai/ha): 0
CCn1nc(C(F)(F)F)c(C[S+]([O-])c2cccc[n+]2[O-])c1OCC(F)(F)F (racemic) [Compound 65] | 30 | 40 | 80 | 100 | 0 | 20 | 20 | 25 | 50 | 90 | 100 | 100 | 0 | 20 | 40 | 40 | 
Cn1nc(C(F)(F)F)c(C[S+]([O-])c2cccc[n+]2[O-])c1OCC(F)(F)F (racemic) [Compound 28] |  |  |  |  |  |  |  |  |  |  |  |  |  |  |  |  | Spanishneedles plant response rating (spanishneedles; 62 g ai/ha, Preemergence): 100; Spanishneedles plant response rating (spanishneedles; 125 g ai/ha, preemergence): 100; Plant response rating, Spanishneedles (spanishneedles; Preemergence): 80
CC(c1c(C(F)(F)F)nn(C)c1Cl)S(=O)(=O)c1ccc(Cl)c[n+]1[O-] (racemic) [Compound 40] | 0 | 0 | 0 | 0 | 0 | 0 | 0 | 30 | 45 | 45 | 85 | 85 | 0 | 0 | 0 | 0 | 
Cc1cc[n+]([O-])c(S(=O)(=O)Cc2c(C(F)(F)F)nn(C)c2Cl)c1 [Compound 19] |  |  |  |  |  |  |  |  |  |  |  |  |  |  |  |  | Sowthistle plant response rating (common sowthistle; 62 g ai/ha, Preemergence): 80; Sowthistle plant response rating (common sowthistle; 125 g ai/ha, preemergence): 95; Plant response rating, Sowthistle (common sowthistle; Preemergence, 31 g ai/ha): 0; Horseweed plant response rating (Canada horseweed; 62 g ai/ha, Preemergence): 0; Horseweed plant response rating (Canada horseweed; 125 g ai/ha, preemergence): 100; Plant response rating, Horseweed (Canada horseweed; Preemergence, 16 g ai/ha): 0; Plant response rating, Horseweed (Canada horseweed; Preemergence, 31 g ai/ha): 0; Chickweed plant response rating (common chickweed; 62 g ai/ha, Preemergence): 0; Chickweed plant response rating (common chickweed; 125 g ai/ha, preemergence): 75; Plant response rating, Chickweed (common chickweed; Preemergence, 16 g ai/ha): 0; Plant response rating, Chickweed (common chickweed; Preemergence, 31 g ai/ha): 0
Cn1nc(C(F)(F)F)c(C[S+]([O-])c2cccc[n+]2[O-])c1OCC(F)(F)C(F)(F)F (stereo not drawn) [Compound 78] | 0 | 0 |  |  | 0 | 0 | 0 | 0 | 0 | 0 | 95 | 100 | 0 | 0 | 0 | 0 | 

— patent publication US20100298141A1, “SUBSTITUTED PYRIDINE N-OXIDE HERBICIDES” (E. I. DU PONT DE NEMOURS AND COMPANY, priority 2007, published 2010)
